Literature values, collected in patent publication US7976880B2, “Pregnane glycoside compositions and Caralluma extract products and uses thereof” (priority 2003, dated 2011).
Like-named read-outs stand apart in the source and are kept apart here.

Test system: appetite
Conditions: 3 mg per kg body weight

SMILES: O=C(O)CC(O)(C(=O)O)C(O)C(=O)O (single isomer, unassigned; (-)) [HCA, (−)-hydroxycitrate]
- Reduction in appetite (at 6.5 hours): about 43%
- Reduction in appetite (at 24 hours): about 29%
